Laboratory results taken from US11357778B2, “Antagonist of the fibroblast growth factor receptor 3 (FGFR3) for use in the treatment or the prevention of skeletal disorders linked with abnormal activation of FGFR3” (INSTITUT NATIONAL DE LA SANTE ET DE LE RECHERCHE MEDICALE …, priority 2011, dated 2022).

Legend:
[1] = test system: FGFR3^Y373C, FGFR3^K650E, FGFR3^K650M; assay: Constitutive FGFR3 phosphorylation in transfected human chondrocyte lines / HEK cells (immunoprecipitation, immunoblot, immunocytochemistry); type: cell-based
Description: Human Embryonic Kidney (HEK) cells and human chondrocyte lines (Benoist-Lasselin et al., FEBS Lett, 581: 2593-2598, 2007.) were transfected transiently with FGFR3 human constructs (FGFR^3Y373C, FGFR3^K650M, FGFR3^K650E) (Gibbs, L. and Legeai-Mallet, L. Biochim Biophys Acta, 1773: 502-512, 2007) using Fugene 6 (Roche). A31 (31) or PD173074 (Parke Davies) were added at a concentration of 2 mM overnight. Transfected cells were lysed in RIPA buffer (50 mM Tris-HCl pH 7.6, 150 mM NaCl, 0.5% NP40, 0.25% sodium deoxycholate, supplemented with protease and phosphatase inhibitors).
Immunoprecipitation were performed by incubating […] rabbit anti-FGFR3 (Sigma)/[…] protein with protein A-agarose (Roche). […] Bound proteins were detected by chemiluminescence (ECL, Amersham). The blots were rehybrididized with an antipan-actin antibody for quantification (Millipore).
For immunocytochemistry, the inventors used the following primary antibodies: anti-FGFR3 antibodies (1:400 dilution; Sigma) and anti-phosphotyrosine antibodies (1:200 dilution; Cell Signaling) and secondary antibodies Alexa Fluor®488 goat antirabbit and Alexa Fluor®568 goat anti-mouse (1:400 dilution; Molecular Probes). Cells were covered with Faramount Aquaeous Mounting Medium (Dako) and analyzed using an Olympus PD70-IX2-UCB microscope. […]

[2] = test system: Fgfr3^Y367C/+ growth plate; assay: Histology of cultured femur growth plate (HES staining, type X collagen in situ hybridization); type: cell-based, mouse
Description: Limb explants were fixed after culture in 4% paraformaldehyde at 4° C., and placed in a staining solution for 45-60 minutes (0.05% Alizarin Red, 0.015% Alcian Blue, 5% acetic acid in 70% ethanol) or embedded in paraffin. Serial […] were stained with Hematoxylin-Eosin using standard protocols for histological analysis or were subjected to in situ hybridization or immunohistochemical staining. In situ hybridization using [S35]-UTP labeled antisense ribopropes for collagen X was carried out as previously described (Delezoide et al., Hum Mol Genet, 6, 1899-1906, 1997). Sections were counterstained with Hematoxylin. For immunohistochemistry, sections were stained with antibodies specific to FGFR3 (1:250 dilution; Sigma), anti PCNA (1:1000 dilution; Abcam), anti-KI67 (1:300; Abcam), anti-cyclin D1 (1:80 dilution; Santa Cruz) and anti-p57 (1:100 dilution; Santa Cruz) using the Dako Envision kit. Images were captured with an Olympus PD70-IX2-UCB microscope. […] The inventors evaluated the impact of A31 on the growth plate (FIG. 4A). […] Histological examinations using HES staining (FIG. 10A) and type X collagen labeling (FIG. 10B) were also carried out.

[3] = test system: Fgfr3^Y367C/+ mouse growth plates; assay: Proliferation markers and cell cycle regulators in growth plates (immunohistochemistry, PCNA quantification); type: cell-based
Description: In situ hybridization using [S35]-UTP labeled antisense ribopropes for collagen X was carried out as previously described (Delezoide et al., Hum Mol Genet, 6, 1899-1906, 1997). Sections were counterstained with Hematoxylin. For immunohistochemistry, sections were stained with antibodies specific to FGFR3 (1:250 dilution; Sigma), anti PCNA (1:1000 dilution; Abcam), anti-KI67 (1:300; Abcam), anti-cyclin D1 (1:80 dilution; Santa Cruz) and anti-p57 (1:100 dilution; Santa Cruz) using the Dako Envision kit. Images were captured with an Olympus PD70-IX2-UCB microscope.
Three observers counted PCNA-positive and negative chondrocytes in proliferative […], prehypertrophic (PH) and hypertrophic (H) zones of the growth plate. A Student's t-test was used to compare treated (A31) and untreated femurs. Imagine software cellSens (Olympus) was used for counting cells. A p-value<0.05 is considered significant.
The inventors noted a higher expression of PCNA than KI67 in the mutant growth plate. Furthermore, the inventors investigated whether the presence of mutated Fgfr3 caused an impairment of expression of cell cycle regulators. In fact, activated Fgfr3 induced a significant overexpression of cyclin D1 in the proliferative and PH chondrocytes of Fgfr3^Y367C/+ mice. […] The inventors further analyzed the level of CDK inhibitors (CDKIs) negatively regulating the cell cycle, particularly p57, a member of the Cip/Kip family. Activated Fgfr3 induced a higher expression of p57 predominantly in late proliferative and PH chondrocytes. […] The inventors conclude that activated FGFR3 leads to over-expression of markers of proliferation (PCNA, KI67) and cell cycle regulators (cyclin D1 and p57) particularly in the prehypertrophic zone.

[4] = A31-treated Fgfr3^Y367C/+ growth plates

Q: What does the source list for `COc1cc(OC)cc(-c2cc3cnc(NCc4cn(CC5CCCN(C)C5)nn4)nc3nc2NC(=O)NC(C)(C)C)c1` (stereo not shown) [Compound A31]?
A: constitutive FGFR3 receptor phosphorylation (immunoprecipitation and Western blotting) ([1]; 2 mM overnight, cells expressing FGFR3^Y373C, FGFR3^K650E, FGFR3^K650M): abolished receptor phosphorylation; FGFR3 phosphorylation by immunocytochemistry ([1]; transfected cells expressing FGFR3 mutations, data not shown): complete inhibition; size of the hypertrophic zone of the growth plate ([2]; A31, Fgfr3^Y367C/+ femur explants): marked expansion of the hypertrophic zone; type X collagen expression (in situ hybridization) ([2]; A31, Fgfr3^Y367C/+ growth plates): enhanced type X collagen expression; chondrocyte morphology ([2]; A31, data not shown): enlarged and more spherical; PCNA positive cells, hypertrophic (H) zone [3, 4]: 18%; PCNA positive cells, prehypertrophic (PH) zone [3, 4]: 20%; p57 protein expression in growth plate ([3]; A31, PH zone, data not shown): reduced expression of p57 protein; KI67 expression in growth plates ([3]; A31, data not shown): decreased this expression; cyclin D1 expression in mutant femurs (immunohistochemistry) ([3]; A31, data not shown): returned cyclin D1 expression to control levels
